The text below walks through data of patent US9579319B2 (Redx Pharma PLC, priority 2013, dated 2017).

Like-named read-outs stand apart in the source and are kept apart here.

For the experiment, the target named is Hedgehog signalling pathway. Kind of experiment: Gli-reporter NIH3T3 luciferase assay (Hedgehog pathway inhibition). Type of experiment: cell-based. To be noted: Gli-reporter NIH-3T3 cells, recombinant mouse sonic hedgehog, 24 hours, luminescence. The method, then: In vitro biological evaluation of compounds of the invention was carried out using the procedure detailed below. The procedure provides activity data for the compounds of the invention against the Hedgehog signalling pathway. The activity is represented as IC50 values in Table 12 below.
The Gli-reporter NIH3T3 cell line (BPS Biosciences) was grown according to the suppliers recommendations. Briefly, cells were maintained in growth medium (DMEM supplemented with 10% calf serum, 1% Penicillin/Streptomycin, and 500 µg/mL of Geneticin) and grown at 37° C., 5% CO2. In order to passage cells they were first rinsed with phosphate buffered saline before the addition of 0.05% Trypsin/EDTA. Fresh growth media was added and the cells were transferred to a centrifuge tube, spun and resuspended at an appropriate cell density.
Gli-reporter NIH-3T3 cells were seeded at 20,000 cells/well into 96 well, poly-D-lysine coated white clear bottomed full area TC plates in growth media (without geneticin). Three wells were left with just media as cell free controls. Cells were then incubated for 24 hours at 37° C. in a 5% CO2.
Serial dilutions of the test compounds were prepared in 100% DMSO. 10 μl of compound or DMSO from each well was pipetted into a sterile, 0.5 ml deep well conical bottomed 96 well plate (intermediate plate). 190 μl of warmed assay media (Opti-MEM supplemented with 0.5% calf serum, 1% non-essential amino acids, 1 mM sodium pyruvate, 10 mM HEPES, 1% penicillin/Streptomycin) was then added to each well and mixed five times at 180 μl by electronic pipette to ensure homogeneity of the compound solution. This 1:20 dilution gives a top concentration of 50 μM in 5% DMSO, 95% assay media. 10 μl was pipetted from each well of the intermediate plate into a second deep well sterile plate. 490 μl of warm assay media was then added to each well and mixed five times at 300 μl. This gives a final top concentration of 1 μM in 0.1% DMSO.
After the 24 hour incubation, media was carefully removed by pipette and replaced with 45 μl of compound dilutions in triplicate. This was incubated for one hour at 37° C. in a 5% CO2. After an hour, 5 μl 10 μg/mL recombinant mouse sonic hedgehog (R&D Systems) was added to each well and the plates were incubated for a further 24 hours at 37° C., 5% CO2.
After 24 hours, plates were removed from the incubator and left to acclimatise to room temperature for 20 minutes. 50 μl of OneGLO assay reagent (Promega) was then added to each well and the plates gently shaken for a further 30 minutes. Plates were then read for luminescence on the EnVision plate reader (PerkinElmer).

The mark [1] stands for this setting: NIH3T3, read-out: Category (Hedgehog pathway inhibition activity, IC50).
[2] abbreviates: NIH3T3, read-out: Gli Luc nM (IC50).

One may read the IC50 as the midpoint of a concentration-inhibition curve. Consider “1-[4,5-dimethyl-6-(2-methylpyrazol-yl)pyridazin-3-yl]-N-methyl-N-[[2-(trifluoromethoxy)phenyl]methyl]piperidin-4-amine [Example 89]”, for which, where the note is “read-out: Gli luc IC50”, the IC50 is more than 200 nM.

Regarding `Cn1nccc1-c1nnc(N2CCC(NC(=O)Nc3ccc(F)cc3F)CC2)c2ccccc12` [Example 8], the IC50 by setting is: under setting [1], less than 10 nM; under setting [2], 0.99 nM.

Regarding `Cn1nccc1-c1nnc(N2CCC(NC(=O)NC3CCCCC3)CC2)c2ccccc12` [Example 11, 1-cyclohexyl-3-[1-[4-(2-methylpyrazol-3-yl)phthalazin-1-yl]-4-piperidyl]urea], under setting [1], the IC50 was less than 10 nM.

As for `CN(Cc1ccccc1OC(F)F)C1CCN(c2nnc(-c3ccnn3C)c3ccccc23)CC1` [Example 12, N-[[2-(difluoromethoxy)phenyl]methyl]-N-methyl-1-[4-(2-methylpyrazol-3-yl)phthalazin-1-yl]piperidin-4-amine], the IC50 under setting [1] fell in the range of 10 to 200 nM.

Consider `Cn1nccc1-c1nnc(N2CCC(NC(=O)Nc3cccc(C(F)(F)F)c3)CC2)c2ccccc12` [Example 13, 1-[1-[4-(2-methylpyrazol-3-yl)phthalazin-1-yl]-4-piperidyl]-3-[3-(trifluoromethyl)phenyl]urea], for which the IC50 under setting [1] was less than 10 nM.

Take `Cn1nccc1-c1nnc(N2CCC(NC(=O)Nc3ccc(C(F)(F)F)cc3)CC2)c2ccccc12` [Example 14, 1-[1-[4-(2-methylpyrazol-3-yl)phthalazin-1-yl]-4-piperidyl]-3-[4-(trifluoromethyl)phenyl]urea]: the IC50 is, setting by setting: under setting [1], less than 10 nM; under setting [2], 0.71 nM.

For `COc1ccccc1NC(=O)NC1CCN(c2nnc(-c3ccnn3C)c3ccccc23)CC1` [Example 15, 1-(2-methoxyphenyl)-3-[1-[4-(2-methylpyrazol-3-yl)phthalazin-1-yl]-4-piperidyl]urea], the IC50 under setting [1] was less than 10 nM.

Regarding `Cn1nccc1-c1nnc(N2CCC(NC(=O)Nc3cccc(F)c3)CC2)c2ccccc12` [Example 16, 1-(3-fluorophenyl)-3-[1-[4-(2-methylpyrazol-3-yl)phthalazin-1-yl]-4-piperidyl]urea], the IC50 under setting [1] was less than 10 nM.

For `CSc1ccccc1CNC1CCN(c2nnc(-c3ccnn3C)c3ccccc23)CC1` [Example 17, 1-[4-(2-methylpyrazol-3-yl)phthalazin-1-yl]-N-[(2-methylsulfanylphenyl)methyl]piperidin-4-amine], under setting [1], the IC50 lay within 10 to 200 nM.

For the compound `Cn1nccc1-c1nnc(N2CCC(NCc3ccc(F)nc3C(F)(F)F)CC2)c2ccccc12` [Example 18, N-[[6-fluoro-2-(trifluoromethyl)-3-pyridyl]methyl]-1-[4-(2-methylpyrazol-3-yl)phthalazin-1-yl]piperidin-4-amine], the IC50 under setting [1] fell in the range of 10 to 200 nM.

As to `Cn1nccc1-c1nnc(N2CCC(NCc3ccc(F)cc3Cl)CC2)c2ccccc12` [Example 19, N-[(2-chloro-4-fluoro-phenyl)methyl]-1-[4-(2-methylpyrazol-3-yl)phthalazin-1-yl]piperidin-4-amine], the IC50 under setting [1] was in the range of 10 to 200 nM.

In the case of `Cn1nccc1-c1nnc(N2CCC(NCc3ccc(OC(F)(F)F)cc3)CC2)c2ccccc12` [Example 20, 1-[4-(2-methylpyrazol-3-yl)phthalazin-1-yl]-N-[[4-(trifluoromethoxy)phenyl]methyl]piperidin-4-amine], under setting [1], the IC50 lay in the range of 10 to 200 nM.

Take `Cn1nccc1-c1nnc(N2CCC(NC(=O)Nc3ccccc3C(F)(F)F)CC2)c2ccccc12` [Example 21, 1-[1-[4-(2-methylpyrazol-3-yl)phthalazin-1-yl]-4-piperidyl]-3-[2-(trifluoromethyl)phenyl]urea]: the IC50 under setting [1] was less than 10 nM.

As for `Cn1nccc1-c1nnc(N2CCC(NC(=O)Nc3cccc(C#N)c3)CC2)c2ccccc12` [Example 22, 1-(3-cyanophenyl)-3-[1-[4-(2-methylpyrazol-3-yl)phthalazin-1-yl]-4-piperidyl]urea], the IC50 under setting [1] is less than 10 nM.

Turning to `Cn1nccc1-c1nnc(N2CCC(NC(=O)Nc3ccc(F)cc3C(F)(F)F)CC2)c2ccccc12` [Example 23, 1-[4-fluoro-2-(trifluoromethyl)phenyl]-3-[1-[4-(2-methylpyrazol-3-yl)phthalazin-1-yl]-4-piperidyl]urea], the IC50 by setting is: under setting [1], less than 10 nM; under setting [2], 0.66 nM.

For `COc1cccc(NC(=O)NC2CCN(c3nnc(-c4ccnn4C)c4ccccc34)CC2)c1` [Example 24, 1-(3-methoxyphenyl)-3-[1-[4-(2-methylpyrazol-3-yl)phthalazin-1-yl]-4-piperidyl]urea], the IC50 under setting [1] is less than 10 nM.

Turning to `Cn1nccc1-c1nnc(N2CCC(NC(=O)Nc3ccccc3OC(F)(F)F)CC2)c2ccccc12` [Example 25, 1-[1-[4-(2-methylpyrazol-3-yl)phthalazin-1-yl]-4-piperidyl]-3-[2-(trifluoromethoxy)phenyl]urea], the IC50 under setting [1] was less than 10 nM.

For `Cn1nccc1-c1nnc(N2CCC(NC(=O)Nc3ccc(OC(F)F)cc3)CC2)c2ccccc12` [Example 26, 1-[4-(difluoromethoxy)phenyl]-3-[1-[4-(2-methylpyrazol-3-yl)phthalazin-1-yl]-4-piperidyl]urea], the IC50 under setting [1] is less than 10 nM.

`CN(Cc1ccc(F)nc1F)C1CCN(c2nnc(-c3ccnn3C)c3ccccc23)CC1` [Example 27, N-[(2,6-difluoro-3-pyridyl)methyl]-N-methyl-1-[4-(2-methylpyrazol-3-yl)phthalazin-1-yl]piperidin-4-amine]: under setting [1], the IC50 lay within 10 to 200 nM.

On to `CSc1ccccc1CN(C)C1CCN(c2nnc(-c3ccnn3C)c3ccccc23)CC1` [Example 28, N-methyl-1-[4-(2-methylpyrazol-3-yl)phthalazin-1-yl]-N-[(2-methylsulfanylphenyl)methyl]piperidin-4-amine], for which the IC50 under setting [1] is less than 10 nM.

For `CC(C)c1ccccc1CN(C)C1CCN(c2nnc(-c3ccnn3C)c3ccccc23)CC1` [Example 29, N-[(2-isopropylphenyl)methyl]-N-methyl-1-[4-(2-methylpyrazol-3-yl)phthalazin-1-yl]piperidin-4-amine], the IC50 under setting [1] was in the range of 10 to 200 nM.

For `Cc1ccccc1CN(C)C1CCN(c2nnc(-c3ccnn3C)c3ccccc23)CC1` [Example 30, N-methyl-1-[4-(2-methylpyrazol-3-yl)phthalazin-1-yl]-N-(o-tolylmethyl)piperidin-4-amine], the IC50 under setting [1] was less than 10 nM.

As for `Cn1nccc1-c1nnc(N2CCC(NCc3ccccc3[N+](=O)[O-])CC2)c2ccccc12` [Example 31, 1-[4-(2-methylpyrazol-3-yl)phthalazin-1-yl]-N-[(2-nitrophenyl)methyl]piperidin-4-amine], the IC50 under setting [1] was 10 to 200 nM.

In the case of `Cn1nccc1-c1nnc(N2CCC(NC(=O)Nc3ccc(C#N)cc3)CC2)c2ccccc12` [Example 32, 1-(4-cyanophenyl)-3-[1-[4-(2-methylpyrazol-3-yl)phthalazin-1-yl]-4-piperidyl]urea], the IC50 under setting [1] is less than 10 nM.

As to `CN(Cc1ccccc1C#N)C1CCN(c2nnc(-c3ccnn3C)c3ccccc23)CC1` [Example 33, 2-[[methyl-[1-[4-(2-methylpyrazol-3-yl)phthalazin-1-yl]-4-piperidyl]amino]methyl]benzonitrile], the IC50 under setting [1] is 10 to 200 nM.

As for `Cn1nccc1-c1nnc(N2CCC(NCc3cccc(OC(F)(F)F)c3)CC2)c2ccccc12` [Example 34, 1-[4-(2-methylpyrazol-3-yl)phthalazin-1-yl]-N-[[3-(trifluoromethoxy)phenyl]methyl]piperidin-4-amine], the IC50 under setting [1] lay in the range of 10 to 200 nM.

Regarding `Cn1nccc1-c1nnc(N2CCC(NCc3ccc(Cl)cc3)CC2)c2ccccc12` [Example 35, N-[(4-chlorophenyl)methyl]-1-[4-(2-methylpyrazol-3-yl)phthalazin-1-yl]piperidin-4-amine], the IC50 under setting [1] is 10 to 200 nM.

Consider `Cn1nccc1-c1nnc(N2CCC(NCc3ccccc3OC(F)(F)F)CC2)c2ccccc12` [Example 36, 1-[4-(2-methylpyrazol-3-yl)phthalazin-1-yl]-N-[[2-(trifluoromethoxy)phenyl]methyl]piperidin-4-amine], for which the IC50 under setting [1] was 10 to 200 nM.

Consider `Cn1nccc1-c1nnc(N2CCC(NCc3ccc(C(F)(F)F)cc3)CC2)c2ccccc12` [Example 37, 1-[4-(2-methylpyrazol-3-yl)phthalazin-1-yl]-N-[[4-(trifluoromethyl)phenyl]methyl]piperidin-4-amine], for which, under setting [1], the IC50 lay in the range of 10 to 200 nM.

In the case of `Cn1nccc1-c1nnc(N2CCC(NCc3ccccc3Cl)CC2)c2ccccc12` [Example 38, N-[(2-chlorophenyl)methyl]-1-[4-(2-methylpyrazol-3-yl)phthalazin-1-yl]piperidin-4-amine], the IC50 under setting [1] fell in the range of 10 to 200 nM.
